Source: patent US10189782B2, “Derivatives of indole for the treatment of cancer, viral infections and lung diseases” (BIOKINESIS, priority 2012, dated 2019)
Where two headings read alike, the source gives them in different places.

How the values were obtained:
K562 cells = experiment: Cytotoxicity on human cancer cells (WST-1), K562; assay type: cell-based; details: WST-1 on D4, read-out: K562 IC50
Experimental: (§1) Evaluation of Cytotoxicity Effects on Human Cancer Cells
(§2) The effects of the compounds of the invention on the viability of human cancer cells were studied on various human cancer cell lines of differing tissue origins (A549, NCI-H460: lung cancer; MDA-MB-231: breast cancer; HCT-116, HT-29: colon cancer; MIA-PaCa-2: pancreatic cancer; K562: leukaemia). All cell lines were obtained from ATCC or ECACC. Cells were cultured in the culture media described below, under a 37° C., 5% CO2 humidified atmosphere, according to a standard operating procedure.
(§3) On D0, the cells were plated in 90 μl in 96 wells plates at densities ranging from 500 to 5,000 cells per well.
(§4) Following addition of the test substance the cells were protected from light. The solvents (DMSO and specific control solvent were added at the maximal concentration: 10 μl/well (3 wells/condition)).
(§5) On D4, the Cell Proliferation Reagent WST-1 was added to each well (10 μl/well), according to a standard operating procedure. The cells were then incubated for 30 min to 4 h at 37° C.-5% CO2. After these incubations, the 96-well plates were shaken thoroughly for 1 min with Multiskan® EX apparatus (Thermo Labsystems, France). The absorbence was measured at 450 nm, the reference wavelength being 620 nm. The analysis of the results was performed with the Ascent software 2.6 (Thermo Labsystems, France), Microsoft Excel 2003 and GraphPad Prism 4.03 softwares to give the concentration of the compounds that induces the death of 50% of the cells (IC50).

HCT-116 = experiment: Cytotoxicity on human cancer cells (WST-1), HCT-116; assay type: cell-based; details: HCT-116 colon cancer cells, WST-1 on D4
Experimental: as §1, §2
HCT-116: Mc Coy's 5a+10% FBS+0.5 mM Ultraglutamine
as §3, §4
(§6) On D4, the Cell Proliferation Reagent WST-1 was added to each well (10 μl/well), according to a standard operating procedure. The cells were then incubated for 30 min to 4 h at 37° C.-5% CO2. After these incubations, the 96-well plates were shaken thoroughly for 1 min with Multiskan® EX apparatus (Thermo Labsystems, France). The absorbence was measured at 450 nm, the reference wavelength being 620 nm. […]

MIA-PaCa-2 = experiment: Cytotoxicity on human cancer cells (WST-1), MIA-PaCa-2; assay type: cell-based; details: MIA-PaCa-2 pancreatic cancer cells, WST-1 on D4
Experimental: as §1, §2, §3, §4, §5

MDA-MB-231 = experiment: Cytotoxicity on human cancer cells (WST-1), MDA-MB-231; assay type: cell-based; details: MDA-MB-231 breast cancer cells, WST-1 on D4
Experimental: as §1, §2, §3, §4, §5

NCI-H460 = experiment: Cytotoxicity on human cancer cells (WST-1), NCI-H460; assay type: cell-based; details: NCI-H460 lung cancer cells, WST-1 on D4, read-out: IC50 (μM) NCIH460
Experimental: as §1, §2
NCI-H460: RPMI 1640+10% FBS+10 mM HEPES+1 mM Sodium pyruvate+2.5 g/l glucose
as §3, §4, §6

[1] = target: T1, Human recombinant MKlp2 motor domain1-519, His tagged (Homo sapiens, UniProt O95235); experiment: Microtubule stimulated ATPase activity of the MKlp2 motor domain (Kinesin ELIPA Assay Kit); assay type: biochemical; details: read-out: MKIp2 IC50
T1 construct: Human recombinant MKlp2 motor domain1-519, His tagged; His; purchased Cytoskeleton MP05
T1 sequence (O95235 1-519): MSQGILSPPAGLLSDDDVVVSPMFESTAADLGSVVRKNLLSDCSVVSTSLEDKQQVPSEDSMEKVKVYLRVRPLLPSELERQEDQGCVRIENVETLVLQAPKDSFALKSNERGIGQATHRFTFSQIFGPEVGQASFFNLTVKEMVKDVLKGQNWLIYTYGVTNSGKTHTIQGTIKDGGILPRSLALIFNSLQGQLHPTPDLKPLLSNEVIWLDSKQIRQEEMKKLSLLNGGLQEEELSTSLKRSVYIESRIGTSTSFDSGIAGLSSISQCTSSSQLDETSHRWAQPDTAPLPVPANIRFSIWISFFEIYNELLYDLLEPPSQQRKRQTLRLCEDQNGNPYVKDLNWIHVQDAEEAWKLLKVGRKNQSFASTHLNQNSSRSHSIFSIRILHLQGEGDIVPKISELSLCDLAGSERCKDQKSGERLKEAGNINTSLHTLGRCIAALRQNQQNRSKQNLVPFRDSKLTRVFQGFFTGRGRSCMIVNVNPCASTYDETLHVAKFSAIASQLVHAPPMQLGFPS
Procedure, shortened: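 Microtubule-stimulated ATPase at 22° C, with free phosphate followed in real time by MESG/PNP coupled absorbance at 360 nm. Motor mix in Pipes-NaOH pH 7.0, MgCl2, 30 μM Tx with porcine brain microtubules; reaction started with 5 mM ATP stock at 20% of volume. Kinetic read: 21 readings, 30 s apart.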

[2] = Stability studies in mouse plasma; assay type: in vitro ADME; details: for Remaining compound 63 (%) (mean ± SEM, n = 2): Mouse plasma, 2 μM, 37° C.
Experimental: (§7) Stability Studies in Mouse or Human Plasma The study was to evaluate the stability of the disclosed compounds after incubation in mouse or human plasma and to measure the metabolites formed. For the disclosed compound, a stock solution was prepared at 200 μM in DMSO. This solution was then 100-fold diluted in 1 ml of mouse or human plasma in order to obtain the required concentration of 2 μM. One aliquot of 100 μl was taken (TO) and the remaining solution was incubated at 37° C. in water bath for 60 min, 120 min and 240 min. At the end of each incubation time 100 μl of plasma was taken, 100 μl of acetonitrile containing 0.1% of formic acid were added to each aliquot in order to stop the enzymatic reaction and to precipitate the proteins. Samples was vortexed/mixed and centrifuged 5 min at 16434.6 g (=14000 rpm) (4° C.). After centrifugation, the clear supernatant (at least 150 μl) was transferred into 1.2 ml HPLC glass vials and sealed. Samples were placed into the refrigerated autosampler and 20 μl were injected into a HPLC-MS/MS. The results are expressed with the percentage of test substance remaining by comparing area under specific chromatographic peak of test samples after incubation with area under specific chromatographic peak at TO (Tables 7 and 8 and FIGS. 1 and 2).

[3] = Stability studies in human plasma; assay type: in vitro ADME; details: for Remaining compound 63 (%) (mean ± SEM, n = 2): Human plasma, 2 μM, 37° C.
Experimental: as §7

[4] = test system: human colon carcinoma HCT-116 xenografts; experiment: Anti-tumor activity in nude mice bearing subcutaneous human colon carcinoma HCT-116 xenografts; assay type: in vivo
Experimental: The effects of one compound of the invention were studied on the tumor growth of human cancer cells in nude mice. […] The induction in nude mice was realized by subcutaneous injection in the right flank of each mouse of 10×10^6 HCT-116 cells in 200 μl serum-free medium. When the tumor volume reached 130 mm^3, mice were randomized in to 3 groups (10 mice/group).
Mice of group 2 were treated by intraperitoneal injection of cisplatin (diluted in NaCl 0.9%) at 4 mg/kg according to the treatment schedule 1Q3Dx3.
The body weight and tumor volume of mice were recorded twice a week until the end of the experiment.

[5] = test system: human large lung carcinoma NCI-H460 xenografts; experiment: Anti-tumor activity in nude mice bearing subcutaneous human large cell lung carcinoma NCI-H460 xenografts; assay type: in vivo
Experimental: In-Vivo Evaluation of Anti-Tumor Activity of Compound 38 in Nude Mice Bearing Subcutaneous Human Large Cell Lung Carcinoma NCI-11460 Xenografts Protocol:
The effects of one compound of the invention were studied on the tumor growth of human cancer cells in nude mice. The human large lung carcinoma NCI-H460 cell line was obtained from ATCC. The induction in nude mice was realized by subcutaneous injection in the right flank of each mouse with 5×10^6 NCI-H460 cells in 200 μl serum-free medium. When the tumor volume reached 80 mm^3, mice were randomized in 2 groups (10 mice/group).
Mice of group 1 were treated by intraperitoneal injection of vehicle (solutol HS15 at 38% in NaCl 0.9%) according to the treatment schedule 1Q1Dx17.
Mice of group 2 were treated by intraperitoneal injection of compound 38 (diluted in solutol HS15 at 38% in NaCl 0.9%) at 37.5 mg/kg according to the treatment schedule 1Q1Dx17.
The tumor volume was recorded twice a week until the end of the experiment.

A549 = experiment: Cytotoxicity on human cancer cells (WST-1), A549; assay type: cell-based; details: A549 lung cancer cells, WST-1 on D4
Experimental: as §1, §2, §3, §4, §6

HT-29 = experiment: Cytotoxicity on human cancer cells (WST-1), HT-29; assay type: cell-based; details: HT-29 colon cancer cells, WST-1 on D4
Experimental: as §1, §2
HT-29: Mc Coy's 5a+10% FBS+0.5 mM Ultraglutamine
as §3, §4, §6

[6] = HCT-116 xenograft nude mice, i.p., Cisplatin 4 mg/kg, Cpd 38 37.5 mg/kg, starting MBW 21 g
[7] = NCI-H460 xenograft nude mice, i.p. 37.5 mg/kg 1Q1Dx17, starting MBW 21 g

`COc1ccncc1/C=C(\C#N)c1c[nH]c2ccc(Br)cc12` [Example 5, (Z)-2-(5-bromo-1H-indol-3-yl)-3-(4-methoxypyridin-3-yl)acrylonitrile] showed an IC50 (K562 cells; Table 4, K562 leukaemia cells) of 800 nM, an IC50 (HCT-116) of 0.7 µM and an IC50 (MIA-PaCa-2) of 0.7 µM. For the same molecule, the IC50 (MDA-MB-231) was 1.7 µM, the IC50 (NCI-H460) was 0.9 µM and the IC50 ([1]; Table 3, 22° C.) was 50 nM.
For `COc1ccc(C#N)cc1/C=C(\C#N)c1cn(C(=O)CN(C)C)c2ccc(Br)cc12` [Example 63], the IC50 (K562 cells; Table 6 (prodrugs, formula II), K562 cells) was 40 nM, the “Remaining compound 63 (%) (mean ± SEM, n = 2)” value ([2]; incubation time 0 min) was 100.0 ± 0.0% and the “Remaining compound 63 (%) (mean ± SEM, n = 2)” value ([2]; incubation time 60 min) was 9.0 ± 0.8%. For the same molecule, the “Remaining compound 63 (%) (mean ± SEM, n = 2)” value ([2]; incubation time 120 min) was 10.7 ± 8.7%, the “Remaining compound 63 (%) (mean ± SEM, n = 2)” value ([2]; incubation time 240 min) was 4.9 ± 0.5% and the half-life at 2 μM ([2]; mouse, plasma) was about 33 min. The “Remaining compound 63 (%) (mean ± SEM, n = 2)” value ([3]; incubation time 0 min) was 100.0 ± 0.0%, the “Remaining compound 63 (%) (mean ± SEM, n = 2)” value ([3]; incubation time 60 min) was 49.2 ± 5.1% and the “Remaining compound 63 (%) (mean ± SEM, n = 2)” value ([3]; incubation time 120 min) was 27.2 ± 5.4%. For the same molecule, the “Remaining compound 63 (%) (mean ± SEM, n = 2)” value ([3]; incubation time 240 min) was 21.2 ± 11.2%, the half-life at 2 μM ([3]; human, plasma) was about 60 min and the IC50 ([1]; Table 6 (prodrugs, formula II)) was 10600 nM.
`COc1ccc(C#N)cc1/C=C(\C#N)c1c[nH]c2ccc(Br)cc12` [Example 38, (Z)-3-(2-(5-bromo-1H-indol-3-yl)-2-cyanovinyl)-4-methoxybenzonitrile] gave an IC50 (K562 cells; Table 4, K562 leukaemia cells) of 30 nM, an IC50 (HCT-116) of 0.06 µM and an IC50 (MIA-PaCa-2) of 0.04 µM. The IC50 (MDA-MB-231) was 0.07 µM, the “Antitumor activity (tumor volume, FIG. 3)” value ([4]; HCT-116 xenograft bearing nude mice, i.p., cisplatin 4 mg/kg, compound 38 37.5 mg/kg) was “Antitumor activity was observed” and the “MBWC D 0-D 4 (mean body weight change)” value [4, 6] was -1.04 g. For the same molecule, the “MBWC D 0-D 7 (mean body weight change)” value [4, 6] was -0.76 g, the “MBWC D 0-D 10 (mean body weight change)” value [4, 6] was -1.08 g and the “MBWC D 0-D 14 (mean body weight change)” value [4, 6] was -1.57 g. For the same molecule, the “MBWC D 0-D 17 (mean body weight change)” value [4, 6] was -1.58 g, the “MBWC D 0-D 21 (mean body weight change)” value [4, 6] was -1.43 g and the “MBWC D 0-D 24 (mean body weight change)” value [4, 6] was -1.83 g. For the same molecule, the “MBWC D 0-D 28 (mean body weight change)” value [4, 6] was -2.54 g, the Tolerability of treatment ([4]; mouse, in vivo, ip, 37.5 mg/kg) was “well tolerated” and the IC50 (NCI-H460) was 0.04 µM. The “Antitumor activity (tumor volume, FIG. 4)” value ([5]; NCI-H460 xenograft bearing nude mice, 37.5 mg/kg i.p.) was “Antitumor activity was observed”, the “MBWC D 0-D 3 (mean body weight change)” value [5, 7] was -0.96 g and the “MBWC D 0-D 4 (mean body weight change)” value [5, 7] was -1.76 g. The “MBWC D 0-D 7 (mean body weight change)” value [5, 7] was -1.82 g, the “MBWC D 0-D 10 (mean body weight change)” value [5, 7] was -2.12 g and the “MBWC D 0-D 14 (mean body weight change)” value [5, 7] was -1.83 g. For the same molecule, the “MBWC D 0-D 17 (mean body weight change)” value [5, 7] was -1.55 g, the Tolerability of treatment ([5]; nude mice bearing NCI-H460 xenograft, 37.5 mg/kg i.p.) was “well tolerated” and the IC50 ([1]; Table 3, 22° C.) was 200 nM.
Molecule `CN(C)c1ccc(C#N)cc1/C=C(\C#N)c1c[nH]c2ccc(Br)cc12` [Example 39, (Z)-3-(2-(5-bromo-1H-indol-3-yl)-2-cyanovinyl)-4-(dimethylamino)benzonitrile] has an IC50 (K562 cells; Table 4, K562 leukaemia cells) of 600 nM, an IC50 (MIA-PaCa-2) of 0.2 µM and an IC50 (A549) of 0.5 µM. It also gave an IC50 (MDA-MB-231) of 0.3 µM, an IC50 (HT-29) of 0.3 µM and an IC50 ([1]; Table 3, 22° C.) of 200 nM.
